Our source for the solubility values is US20110305911A1, “ARTICLE HAVING ANTIFOULING PROPERTIES AND INTENDED TO BE USED IN AQUATIC APPLICATIONS, PARTICULARLY MARINE APPLICATIONS” (BLUESTAR SILICONES FRANCE, priority 2008, published 2011).

A short description of the data set: Solubility of the catalyst. The class given is physicochemical. The note with it: ambient temperature (25° C.).

On to `CC(C)C/C(=C/C(=O)C(C)(C)C)[O][Zn][O]/C(=C\C(=O)C(C)(C)C)CC(C)C` [Catalyst (6), zinc bis(2,2,7-trimethyl-3,5-octanedionate)], for which the solubility result is “soluble in organic solvents, even in alkanes, and in silicone oils”.
